Data as given in US20190350955A1, “METHODS AND PHARMACEUTICAL COMPOSITIONS FOR THE TREATMENT OF CARDIOMYOPATHIES” (INSERM (Institut National de la Sante et de la Recherche …, priority 2016, published 2019).

Experiments:
Assay type in all cases: in vivo, mouse
Lmna^WT/WT mice = assay: NAD+ content quantification in heart and liver of treated wild type mice; details: NR diet same dosage (400 mg/kg/day), 9 weeks
Experimental: (§1) Mice were bred in an accredited animal facility (accreditation number: C-75-13-08). All experiments on mice were approved by the Comité d'éthique en expérimentation animate Charles Darwin No 5. Mice Lmna^H222P/H222P were backcrossed 8 times to 129S2/SvPasOrlRj strain mice to obtain pure genetic background. Male mice used for the studies were maintained under a 12 h light/12 h dark cycle at constant temperature (23° C.) with free access to food and water. Nicotinamide riboside (NR) complementation: Animals at 17 weeks of age were fed for 9 weeks with either a chow diet (A04: Scientific Animal Food & Engineering) or a chow diet complemented with 0.25% of NR (kindly provided by ChromaDex, Inc. California) corresponding to a dose of 400 mg/kg/day for a mouse weighing 25 g eating 4 g of food per day. […]
Fresh mouse tissues were homogenized and processed according to previous report (Sander B J, Oelshlegel F J & Brewer G J (1976) Quantitative analysis of pyridine nucleotides in red blood cells: a single-step extraction procedure. Anal. Biochem. 71: 29-36). The concentration of NAD+ in heart tissue was determined using a spectrophotometric assay at 550 nm based on an alcohol dehydrogenase cycling reaction, in which a Methyl Thiazolyl Tetrazolium (MTT) is reduced to Formazan. […]

Lmna^H222P/H222P mice [1] = assay: Immunoblotting of PARylation, PARP-1, AIF, cleaved-caspase 3 in heart; details: NR treated Lmna H222P/H222P mice
Experimental: as §1
Total proteins were extracted in a glass teflon potter from around 5 mg of mouse heart in […] of Cell Lysis Buffer (Cell Signaling) completed with Deacetylation Inhibitors Cocktail (Santa Cruz). Total protein concentration was assessed with BCA™ Protein Assay (Pierce). […] The signal was captured with a CCD camera (G:Box Syngene) and quantified with ImageJ imaging Software (imagej.net).

Lmna^H222P/H222P mice [2] = assay: Survival of Lmna H222P/H222P mice on NR diet
Experimental: Mice were bred in an accredited animal facility (accreditation number: C-75-13-08). All experiments on mice were approved by the Comité d'éthique en expérimentation animate Charles Darwin No 5. Mice Lmna^H222P/H222P were backcrossed 8 times to 129S2/SvPasOrlRj strain mice to obtain pure genetic background. Male mice used for the studies were maintained under a 12 h light/12 h dark cycle at constant temperature (23° C.) with free access to food and water. Nicotinamide riboside (NR) complementation: Animals at 17 weeks of age were fed for 9 weeks with either a chow diet (A04: Scientific Animal Food & Engineering) or a chow diet complemented with 0.25% of NR (kindly provided by ChromaDex, Inc. California) corresponding to a dose of 400 mg/kg/day for a mouse weighing 25 g eating 4 g of food per day. Nicotinamide (NAM) treatment: Animals at 17 weeks of age were injected intraperitoneally (IP) every two days (q.a.d.) for 9 weeks with either physiologic serum or physiologic serum added with NAM at 50 mg/ml corresponding to a dose of 500 mg/kg for a mouse weighing 25 g.
For survival analysis, Lmna^H222P/H222P mice were fed chow supplemented with 0.25% nicotinamide riboside when they were 17 weeks of age and continued until they suffered from significant distress or died. p≤0.001

NC(=O)c1ccc[n+]([C@@H]2O[C@H](CO)[C@@H](O)[C@H]2O)c1 [NR, nicotinamide riboside]
cellular NAD+ content in liver and heart (Lmna^WT/WT mice): same significant benefit
PARP-1, AIF and cleaved-caspase 3 in heart (Lmna^H222P/H222P mice [1]): activation
PARylation in heart (Lmna^H222P/H222P mice [1]): increase
mice that died over the course of the treatment protocol (Lmna^H222P/H222P mice [2]; NR diet 400 mg/kg/day, 9 weeks from 17 weeks of age, 38% of chow-diet mice died): none
age at which mice started to die (Lmna^H222P/H222P mice [2]; pilot survival study, NR feeding from 17 weeks of age, chow-diet 30 weeks): 38 weeks
mean of survival (Lmna^H222P/H222P mice [2]; pilot survival study, NR feeding from 17 weeks of age, chow-diet 33 weeks): 39 weeks
